Results reported in patent US12528812B2 (Genentech, Inc., priority 2020, dated 2026).
Where two headings read alike, the source gives them in different places.

Columns and labels:
[1] = target: T1, recombinant human JAK1 kinase domain protein (Residues 854-1154) (Homo sapiens, UniProt P23458); experiment: JAK1 biochemical assay (LabChip mobility shift, Ki); settings: read-out: Biochem JAK1 Ki
T1 construct: human JAK1 kinase domain protein (Residues 854-1154); purchased Proteros Biostructures GmbH (Martinsried, Germany); host or cells: insect cells
T1 sequence (P23458 854-1154): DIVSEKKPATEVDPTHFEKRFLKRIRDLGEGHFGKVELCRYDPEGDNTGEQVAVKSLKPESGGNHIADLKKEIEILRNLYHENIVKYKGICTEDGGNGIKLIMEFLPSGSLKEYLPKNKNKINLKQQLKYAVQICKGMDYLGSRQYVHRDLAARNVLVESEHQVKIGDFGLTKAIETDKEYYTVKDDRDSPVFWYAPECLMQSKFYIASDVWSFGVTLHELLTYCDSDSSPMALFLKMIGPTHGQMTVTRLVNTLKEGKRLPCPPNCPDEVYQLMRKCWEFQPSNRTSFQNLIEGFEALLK

[2] = tested on: IL-13-stimulated STAT6 phosphorylation in human lung bronchial epithelial BEAS-2B cell line; experiment: P-STAT6 BEAS-2B + IL-13 cell assay; format: cell-based; settings: BEAS2B cells, IL13 stimulation, read-out: Cellular JAK1 PSTAT6 BEAS2B + IL13
Protocol: In order to study the effect of JAK1 inhibitors in a cell line that is relevant to the cell biology of human asthma, an IL-13-stimulated STAT6 phosphorylation assay in the human lung bronchial epithelial BEAS-2B cell line was developed.
BEAS-2B cells (ATCC′ CRL-9609™) were grown in Bronchial Epithelial Growth Medium (BEGM) (Lonza Catalog No. CC-3170; Walkersville, MD; or PromoCell Catalog No. C-21060; Heidelberg, Germany). Test compound stock solutions (0.5 mM in DMSO) were serially diluted 1:2 in DMSO to generate a 10-point concentration curve (at 500× test concentration), which was further diluted by a 50-fold dilution step in BEGM to generate a 10× concentration curve (in 2% DMSO). Cells were plated at 100,000 cells/well in 200 μL of BEGM in 96-well plates and incubated for 48 hours at 37° C. in a humidified incubator. Medium was aspirated from the cells and replaced with 70 μL of fresh BEGM. Diluted test compound (10 μL; or 2% DMSO in assay medium) was added to the cells, and the plates were incubated for 1 hour at 37° C. in a humidified incubator. Twenty μL of 250 ng/mL human recombinant IL-13 (Bio Techne Catalog No. 213-ILB) was then added to the cells and incubated for 15 minutes at 37° C. Medium was aspirated from the cells and 60 μL of ice-cold 1× cell lysis buffer (Cell Signaling Technologies; Catalog No. 9803S) containing 1 mM PMSF was added to the cells. Assay plates were incubated at −80° C. for at least 1 hour. P-STAT6 was measured by coating GAR plates (MSD; Catalog No. L45RA-1) with rabbit anti-human total STAT6 antibody (Cell Signaling Technologies; Catalog No. 9362S), incubating the cell lysates in the coated plates overnight at 4° C., and then detecting with mouse anti-phospho-STAT6 (Tyr641) Clone 16E12 antibody (Millipore; Catalog No. 05-590, custom labeled by MSD with SULFO-tag) using standard MSD plate processing, washing, and detection protocols. Plates were read on the MESO SECTOR 5600.
Data analysis was performed by subtracting negative control values from all wells and determining percent of control using the positive control values; the IC50 was determined with a four-parameter logistic fit model as shown in Equation 4.

[3] = target: Recombinant human JAK2 kinase domain protein (Residues 812-1132) (Homo sapiens, UniProt O60674); experiment: JAK2 biochemical assay (LabChip mobility shift, Ki); settings: Biochem JAK2 Ki
Recombinant human JAK2 kinase domain protein (Residues 812-1132), sequence (O60674 812-1132): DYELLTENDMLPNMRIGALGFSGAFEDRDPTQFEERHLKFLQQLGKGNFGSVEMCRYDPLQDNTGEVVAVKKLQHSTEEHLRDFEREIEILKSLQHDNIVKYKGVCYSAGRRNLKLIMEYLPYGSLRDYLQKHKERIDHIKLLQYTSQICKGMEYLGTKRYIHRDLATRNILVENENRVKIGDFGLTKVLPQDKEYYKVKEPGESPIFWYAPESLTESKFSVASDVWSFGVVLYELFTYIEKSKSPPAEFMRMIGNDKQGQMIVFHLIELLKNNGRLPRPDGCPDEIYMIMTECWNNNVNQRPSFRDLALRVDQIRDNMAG

Row | SMILES | Ki [1] | Ki [3] | IC50 ([2]; Homo sapiens, BEAS-2B) | IC50 [2]
1 | Cn1cc(NC(=O)c2cnn3cccnc23)c(-c2cc(Oc3ccc(CN4CCC[C@H](CO)C4)cc3)ccc2OC(F)F)n1 (racemic) [Example 162, 3-[2-(difluoromethoxy)-5-[4-[[rac-(3S)-3-(hydroxymethyl)-1-piperidyl]methyl]phenoxy]phenyl]-1-methyl-pyrazol-4-yl]pyrazolo[1,5-a]pyrimidine-3-carboxamide] | 2.6 nM | 0.76 nM | 32 nM | 
2 | Cn1cc(NC(=O)c2cnn3cccnc23)c(-c2cc(Oc3ccc(CN4CCC[C@@H](O)C4)cc3)ccc2OC(F)F)n1 (racemic) [Example 163, N-[3-[2-(difluoromethoxy)-5-[4-[[rac-(3R)-3-hydroxy-1-piperidyl]methyl]phenoxy]phenyl]-1-methyl-pyrazol-4-yl]pyrazolo[1,5-a]pyrimidine-3-carboxamide] | 1.5 nM | 0.37 nM | 21 nM | 
3 | Cn1cc(NC(=O)c2cnn3cccnc23)c(-c2cc(Oc3ccc(CN4CCCC(O)C4)cc3)ccc2OC(F)F)n1 (racemic) [Example 164, N-[3-[2-(difluoromethoxy)-5-[4-[[rac-(3S)-3-hydroxy-1-piperidyl]methyl]phenoxy]phenyl]-1-methyl-pyrazol-4-yl]pyrazolo[1,5-a]pyrimidine-3-carboxamide] | 3.2 nM | 1.5 nM | 38 nM | 
4 | Cn1cc(NC(=O)c2cnn3cccnc23)c(-c2cc(Oc3ccc(CN4CCCC4CO)cc3)ccc2OC(F)F)n1 (racemic) [Example 165, N-[3-[2-(difluoromethoxy)-5-[4-[[rac-(2S)-2-(hydroxymethyl)pyrrolidin-1-yl]methyl]phenoxy]phenyl]-1-methyl-pyrazol-4-yl]pyrazolo[1,5-a]pyrimidine-3-carboxamide] | 1.7 nM | 0.56 nM | 31 nM | 
5 | Cn1cc(NC(=O)c2cnn3cccnc23)c(-c2cc(Oc3ccc(CN4CCCCC4CO)cc3)ccc2OC(F)F)n1 (racemic) [Example 167, N-[3-[2-(difluoromethoxy)-5-[4-[[rac-(2S)-2-(hydroxymethyl)-1-piperidyl]methyl]phenoxy]phenyl]-1-methyl-pyrazol-4-yl]pyrazolo[1,5-a]pyrimidine-3-carboxamide] | 1.9 nM | 0.34 nM | 26 nM | 
6 | Cn1cc(NC(=O)c2cnn3cccnc23)c(-c2cc(Oc3ccc(CN4CCC4CO)cc3)ccc2OC(F)F)n1 (racemic) [Example 168, N-[3-[2-(difluoromethoxy)-5-[4-[[rac-(2S)-2-(hydroxymethyl)azetidin-1-yl]methyl]phenoxy]phenyl]-1-methyl-pyrazol-4-yl]pyrazolo[1,5-a]pyrimidine-3-carboxamide] | 1.3 nM | 0.58 nM | 30 nM | 
7 | Cn1cc(NC(=O)c2cnn3cccnc23)c(-c2cc(Oc3ccc(CN4CCC4CO)cc3)ccc2OC(F)F)n1 (racemic) [Example 169, N-[3-[2-(difluoromethoxy)-5-[4-[[rac-(2R)-2-(hydroxymethyl)azetidin-1-yl]methyl]phenoxy]phenyl]-1-methyl-pyrazol-4-yl]pyrazolo[1,5-a]pyrimidine-3-carboxamide] | 1.2 nM | 0.68 nM |  | 29 nM
8 | Cn1cc(NC(=O)c2cnn3cccnc23)c(-c2cc(Oc3ccc(CN4CCC(CO)C4)cc3)ccc2OC(F)F)n1 (racemic) [Example 170, N-[3-[2-(difluoromethoxy)-5-[4-[[rac-(3S)-3-(hydroxymethyl)pyrrolidin-1-yl]methyl]phenoxy]phenyl]-1-methyl-pyrazol-4-yl]pyrazolo[1,5-a]pyrimidine-3-carboxamide] | 4.1 nM | 1.9 nM | 76 nM | 
9 | Cn1cc(NC(=O)c2cnn3cccnc23)c(-c2cc(Oc3ccc(CN4CCC[C@@H]4CO)cc3)ccc2OC(F)F)n1 (racemic) [Example 171, N-[3-[2-(difluoromethoxy)-5-[4-[[rac-(2R)-2-(hydroxymethyl)pyrrolidin-1-yl]methyl]phenoxy]phenyl]-1-methyl-pyrazol-4-yl]pyrazolo[1,5-a]pyrimidine-3-carboxamide] | 1.9 nM | 0.95 nM | 50 nM | 
10 | CN(C)[C@H]1CCN(C(=O)c2cccc(Oc3ccc(OC(F)F)c(-c4nn(C)cc4NC(=O)c4cnn5cccnc45)c3)c2)C1 (racemic) [Example 210, N-[3-[2-(difluoromethoxy)-5-[3-[rac-(3R)-3-(dimethylamino)pyrrolidine-1-carbonyl]phenoxy]phenyl]-1-methyl-pyrazol-4-yl]pyrazolo[1,5-a]pyrimidine-3-carboxamide] | 1.1 nM | 0.95 nM | 50 nM | 
11 | CN(C)C1CCCN(C(=O)c2cccc(Oc3ccc(OC(F)F)c(-c4nn(C)cc4NC(=O)c4cnn5cccnc45)c3)c2)C1 (racemic) [Example 213, N-[3-[2-(difluoromethoxy)-5-[3-[rac-(3R)-3-(dimethylamino)piperidine-1-carbonyl]phenoxy]phenyl]-1-methyl-pyrazol-4-yl]pyrazolo[1,5-a]pyrimidine-3-carboxamide] | 1.2 nM | 0.89 nM | 49 nM | 
12 | Cn1cc(NC(=O)c2cnn3cccnc23)c(-c2cc(Oc3cccc([C@H]4COCCN4)c3)ccc2OC(F)F)n1 (stereo in doubt) [Example 33, N-[3-[2-(difluoromethoxy)-5-[3-[rac-(3S)-morpholin-3-yl]phenoxy]phenyl]-1-methyl-pyrazol-4-yl]pyrazolo[1,5-a]pyrimidine-3-carboxamide] | 0.95 nM | 0.43 nM | 62 nM | 

Continued by falling Ki [1], values first:

Row | Ki [1] | Ki [3] | SMILES | IC50 ([2]; Homo sapiens, BEAS-2B) | IC50 [2]
13 | 6.2 nM | 1.4 nM | Cn1cc(NC(=O)c2cnn3cccnc23)c(-c2cc(Oc3ccc(CN4CC[C@@H](CO)C4)cc3)ccc2OC(F)F)n1 (racemic) [Example 172, N-[3-[2-(difluoromethoxy)-5-[4-[[rac-(3R)-3-(hydroxymethyl)pyrrolidin-1-yl]methyl]phenoxy]phenyl]-l-methyl-pyrazol-4-yl]pyrazolo[1,5-a]pyrimidine-3-carboxamide] | 150 nM | 
14 | 3.9 nM | 3.7 nM | Cn1cc(NC(=O)c2cnn3cccnc23)c(-c2cc(Oc3cnn([C@H]4CCNC4)c3)ccc2OC(F)F)n1 (racemic) [Example 144, N-[3-[2-(difluoromethoxy)-5-[1-[rac-(3S)-pyrrolidin-3-yl]pyrazol-4-yl]oxy-phenyl]-1-methyl-pyrazol-4-yl]pyrazolo[1,5-a]pyrimidine-3-carboxamide] | 160 nM | 
15 | 2.5 nM | 0.99 nM | Cn1cc(NC(=O)c2cnn3cccnc23)c(-c2cc(Oc3ccc(CN4CCCC[C@@H]4CO)cc3)ccc2OC(F)F)n1 (racemic) [Example 166, N-[3-[2-(difluoromethoxy)-5-[4-[[rac-(2R)-2-(hydroxymethyl)-1-piperidyl]methyl]phenoxy]phenyl]-1-methyl-pyrazol-4-yl]pyrazolo[1,5-a]pyrimidine-3-carboxamide] | 32 nM | 
16 | 0.98 nM | 0.58 nM | CN(C)C1CCN(C(=O)c2cccc(Oc3ccc(OC(F)F)c(-c4nn(C)cc4NC(=O)c4cnn5cccnc45)c3)c2)C1 (racemic) [Example 211, N-[3-[2-(difluoromethoxy)-5-[3-[rac-(3S)-3-(dimethylamino)pyrrolidine-1-carbonyl]phenoxy]phenyl]-1-methyl-pyrazol-4-yl]pyrazolo[1,5-a]pyrimidine-3-carboxamide] | 54 nM | 
17 | 0.84 nM | 0.89 nM | Cn1cc(NC(=O)c2cnn3cccnc23)c(-c2cc(Oc3cccc(CN4CCO[C@@H](CO)C4)c3)ccc2OC(F)F)n1 (stereo in doubt) [Example 75, N-[3-[2-(difluoromethoxy)-5-[3-[[rac-(2S)-2-(hydroxymethyl)morpholin-4-yl]methyl]phenoxy]phenyl]-1-methyl-pyrazol-4-yl]pyrazolo[1,5-a]pyrimidine-3-carboxamide] | 96 nM | 
18 | 0.67 nM | 0.39 nM | Cn1cc(NC(=O)c2cnn3cccnc23)c(-c2cc(Oc3cccc([C@@H]4COCCN4)c3)ccc2OC(F)F)n1 (stereo in doubt) [Example 32, N-[3-[2-(difluoromethoxy)-5-[3-[rac-(3R)-morpholin-3-yl]phenoxy]phenyl]-1-methyl-pyrazol-4-yl]pyrazolo[1,5-a]pyrimidine-3-carboxamide] | 46 nM | 
